Values joined by “and” are separate entries in the source; they are usually repeats but may differ in a detail not shown here. Equal entries are not always repeated.
System: 616215-338-R-J1-PDC complex spheroids, viability % test/control
Experiment: Anticancer human tumor 616215-338-R-J1-PDC patient-derived colon adenocarcinoma cell line growth inhibition [CLK]
Conditions: for viability, T/C: stronger effect = lower value
Summary of the method: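 Multi-cell-type spheroids combined patient-derived tumor cells with HUVEC endothelial cells and human mesenchymal stem cells. Paired agents were dosed in half-log steps down from about clinical Cmax, or from 10 microM where Cmax was unknown.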

[1] = curve of first compound, second compound 0.0316 µM
[2] = curve of first compound, second compound 0.1 µM
[3] = curve of first compound, second compound 0.316 µM
[4] = curve of first compound, second compound 1 µM
[5] = curve of first compound, second compound 3.16 µM
[6] = curve of first compound, second compound 10 µM
[7] = second compound 0.0316 µM, first compound 0.0316 µM
[8] = second compound 0.0316 µM, first compound 0.1 µM
[9] = second compound 0.0316 µM, first compound 0.316 µM
[10] = second compound 0.0316 µM, first compound 1 µM
[11] = second compound 0.0316 µM, first compound 3.16 µM
[12] = second compound 0.0316 µM, first compound 10 µM
[13] = second compound 0.1 µM, first compound 0.0316 µM
[14] = second compound 0.1 µM, first compound 0.1 µM
[15] = second compound 0.1 µM, first compound 0.316 µM
[16] = second compound 0.1 µM, first compound 1 µM
[17] = second compound 0.1 µM, first compound 3.16 µM
[18] = second compound 0.1 µM, first compound 10 µM
[19] = second compound 0.316 µM, first compound 0.0316 µM
[20] = second compound 0.316 µM, first compound 0.1 µM
[21] = second compound 0.316 µM, first compound 0.316 µM
[22] = second compound 0.316 µM, first compound 1 µM
[23] = second compound 0.316 µM, first compound 3.16 µM
[24] = second compound 0.316 µM, first compound 10 µM
[25] = second compound 1 µM, first compound 0.0316 µM
[26] = second compound 1 µM, first compound 0.1 µM
[27] = second compound 1 µM, first compound 0.316 µM
[28] = second compound 1 µM, first compound 1 µM
[29] = second compound 1 µM, first compound 3.16 µM
[30] = second compound 1 µM, first compound 10 µM
[31] = second compound 3.16 µM, first compound 0.0316 µM
[32] = second compound 3.16 µM, first compound 0.1 µM
[33] = second compound 3.16 µM, first compound 0.316 µM
[34] = second compound 3.16 µM, first compound 1 µM
[35] = second compound 3.16 µM, first compound 3.16 µM
[36] = second compound 3.16 µM, first compound 10 µM
[37] = second compound 10 µM, first compound 0.0316 µM
[38] = second compound 10 µM, first compound 0.1 µM
[39] = second compound 10 µM, first compound 0.316 µM
[40] = second compound 10 µM, first compound 1 µM
[41] = second compound 10 µM, first compound 3.16 µM
[42] = second compound 10 µM, first compound 10 µM
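Note: spheroids exposed to agents for 7 days.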
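Throughout, for viability, T/C: 100% = DMSO vehicle wells.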

How did the IC50 [1] turn out when CC(Nc1ccc2c(c1)OCCn1cc(N3C(=O)OCC3C(F)F)nc1-2)C(N)=O (stereo unspecified) + CN1CCN(c2cc(C(=O)Nc3cc4cc(-c5cnn(C)c5)ccc4cn3)ccn2)CC1 was run?
The IC50 was > 10000 nM.

What about the IC50 [2] of the same molecule?
Its IC50 is 1980 nM.

What about the IC50 [3] of the same molecule?
Its IC50 is < 31.6 nM.

What about the IC50 [4] of the same molecule?
The IC50 was < 31.6 nM.

And the IC50 [5]?
Its IC50 is < 31.6 nM.

What about the IC50 [6] of the same molecule?
Its IC50 is < 31.6 nM.

What about the viability, T/C [7] of the same molecule?
The viability, T/C was 94.6%.

What about the viability, T/C [8] of the same molecule?
The viability, T/C was 108%.

What about the viability, T/C [9] of the same molecule?
Its viability, T/C is 101%.

And the viability, T/C [10]?
Its viability, T/C is 92%.

And the viability, T/C [11]?
Its viability, T/C is 78.3%.

And the viability, T/C [12]?
The viability, T/C was 52.4%.

And the viability, T/C [13]?
The viability, T/C was 105%.

And the viability, T/C [14]?
The viability, T/C was 97.9%.

What about the viability, T/C [15] of the same molecule?
The viability, T/C was 75%.

And the viability, T/C [16]?
Its viability, T/C is 59.2%.

What about the viability, T/C [17] of the same molecule?
Its viability, T/C is 44.7%.

What about the viability, T/C [18] of the same molecule?
The viability, T/C was 38%.

And the viability, T/C [19]?
The viability, T/C was 26.2%.

What about the viability, T/C [20] of the same molecule?
The viability, T/C was 22%.

And the viability, T/C [21]?
The viability, T/C was 17.6%.

And the viability, T/C [22]?
The viability, T/C was 13.8%.

And the viability, T/C [23]?
The viability, T/C was 12.9%.

And the viability, T/C [24]?
Its viability, T/C is 10.4%.

What about the viability, T/C [25] of the same molecule?
Its viability, T/C is 0.14%.

And the viability, T/C [26]?
Its viability, T/C is 0.18%.

What about the viability, T/C [27] of the same molecule?
The viability, T/C was 0.22%.

And the viability, T/C [28]?
The viability, T/C was 0.1%.

And the viability, T/C [29]?
Its viability, T/C is 0.88%.

And the viability, T/C [30]?
Its viability, T/C is 0.09%.

And the viability, T/C [31]?
Its viability, T/C is 0.11%.

And the viability, T/C [32]?
The viability, T/C was 0.15%.

And the viability, T/C [33]?
Its viability, T/C is 1.65%.

What about the viability, T/C [34] of the same molecule?
The viability, T/C was 1.21%.

What about the viability, T/C [35] of the same molecule?
The viability, T/C was 1.32%.

And the viability, T/C [36]?
Its viability, T/C is 1.75%.

What about the viability, T/C [37] of the same molecule?
The viability, T/C was 0.13%.

And the viability, T/C [38]?
Its viability, T/C is 0.18%.

And the viability, T/C [39]?
Its viability, T/C is 1.39%.

And the viability, T/C [40]?
The viability, T/C was 0.23%.

What about the viability, T/C [41] of the same molecule?
The viability, T/C was 0.22%.

What about the viability, T/C [42] of the same molecule?
Its viability, T/C is 0.23%.

Which results are given for C=CC(=O)N1CCN(c2nc(=O)n(-c3c(C)ccnc3C(C)C)c3nc(-c4c(O)cccc4F)c(F)cc23)C(C)C1 (stereo unspecified)?
viability, T/C (compound 0.0316 µM): 95.4% and 104%; viability, T/C (compound 0.1 µM): 101% and 108%; viability, T/C (compound 0.316 µM): 106% and 119%; viability, T/C (compound 1 µM): 112% and 98.6%; viability, T/C (compound 3.16 µM): 108% and 110%; viability, T/C (compound 10 µM): 106% and 113%; IC50 (curve of compound): > 10000 nM

How did the IC50 [1] turn out when O=C(c1cc(Cc2n[nH]c(=O)c3ccccc23)ccc1F)N1CCN(C(=O)C2CC2)CC1 + CN1CCN(c2cc(C(=O)Nc3cc4cc(-c5cnn(C)c5)ccc4cn3)ccn2)CC1 was run?
Its IC50 is > 10000 nM.

What about the IC50 [2] of the same molecule?
The IC50 was > 10000 nM.

And the IC50 [3]?
The IC50 was < 31.6 nM.

And the IC50 [4]?
The IC50 was < 31.6 nM.

And the IC50 [5]?
Its IC50 is < 31.6 nM.

What about the IC50 [6] of the same molecule?
The IC50 was < 31.6 nM.

And the viability, T/C [7]?
The viability, T/C was 99.4%.

What about the viability, T/C [8] of the same molecule?
Its viability, T/C is 113%.

And the viability, T/C [9]?
The viability, T/C was 100%.

And the viability, T/C [10]?
Its viability, T/C is 96.6%.

What about the viability, T/C [11] of the same molecule?
The viability, T/C was 103%.

And the viability, T/C [12]?
The viability, T/C was 67.3%.

And the viability, T/C [13]?
The viability, T/C was 114%.

What about the viability, T/C [14] of the same molecule?
Its viability, T/C is 110%.

And the viability, T/C [15]?
The viability, T/C was 98.9%.

And the viability, T/C [16]?
The viability, T/C was 107%.

And the viability, T/C [17]?
Its viability, T/C is 82.9%.

What about the viability, T/C [18] of the same molecule?
The viability, T/C was 55.4%.

And the viability, T/C [19]?
Its viability, T/C is 34.9%.

What about the viability, T/C [20] of the same molecule?
Its viability, T/C is 44.1%.

And the viability, T/C [21]?
Its viability, T/C is 31.3%.

What about the viability, T/C [22] of the same molecule?
Its viability, T/C is 40.5%.

And the viability, T/C [23]?
The viability, T/C was 30.6%.

What about the viability, T/C [24] of the same molecule?
Its viability, T/C is 29.3%.

What about the viability, T/C [25] of the same molecule?
Its viability, T/C is 0.12%.

What about the viability, T/C [26] of the same molecule?
The viability, T/C was 0.17%.

And the viability, T/C [27]?
Its viability, T/C is 0.13%.

And the viability, T/C [28]?
Its viability, T/C is 0.1%.

And the viability, T/C [29]?
Its viability, T/C is 1.83%.

And the viability, T/C [30]?
The viability, T/C was 0.09%.

What about the viability, T/C [31] of the same molecule?
Its viability, T/C is 0.09%.

What about the viability, T/C [32] of the same molecule?
Its viability, T/C is 0.15%.

What about the viability, T/C [33] of the same molecule?
The viability, T/C was 0.12%.

What about the viability, T/C [34] of the same molecule?
The viability, T/C was 0.1%.

What about the viability, T/C [35] of the same molecule?
Its viability, T/C is 0.12%.

What about the viability, T/C [36] of the same molecule?
The viability, T/C was 0.19%.

What about the viability, T/C [37] of the same molecule?
Its viability, T/C is 0.11%.

What about the viability, T/C [38] of the same molecule?
Its viability, T/C is 0.14%.

What about the viability, T/C [39] of the same molecule?
The viability, T/C was 0.18%.

What about the viability, T/C [40] of the same molecule?
The viability, T/C was 0.13%.

And the viability, T/C [41]?
The viability, T/C was 0.23%.

What about the viability, T/C [42] of the same molecule?
The viability, T/C was 1.83%.

Source: PubChem BioAssay AID2060610 (Molecular Pharmacology Branch, DTP, NCI, 2025)
